Literature values in PMC3314724 (Journal of Molecular Modeling, 2011).
pEC50: −log10 of the molar value.

Columns and labels:
[1] = system: FPR1; settings: FPR1 agonist class, peptide derivatives
[2] = system: human neutrophils

| Substance | Observed value (activity class) [1] | pEC50 [2] |
| --- | --- | --- |
| N-formyl-Met-Leu-Ψ(COO) Phe-NHBzl [fMLΨ(COO)F-NHBzl] | Active |  |
| boc-cis-4-mer-captomethyl-Pro-Leu-Phe-OMe [boc-cis-4-mercaptomethyl-PLF-OMe] | Active |  |
| N-formyl-Met-Leu-Phe-OMe [fMLF-OMe] | Active |  |
| N-formyl-Met-Leu-Phe [fMLF] | Active | ~9.30 |
